From PMC11378297, “Discovery and Profiling of New Multimodal Phenylglycinamide Derivatives as Potent Antiseizure and Antinociceptive Drug Candidates” (ACS Chemical Neuroscience, 2024)
Where two headings read alike, the source gives them in different places.

Legend:
[1] = test system: formalin-induced pain, mice; test: formalin test; format: in vivo, mouse
[2] = target: T1, Cav1.2 (h) calcium ion channel (Homo sapiens, UniProt Q13936); test: Cav1.2 (h) calcium ion channel cell-based antagonist calcium flux assay; conditions: HEK293, human recombinant HEK-293 cell, read-out: % inhibition of control agonist response
T1 construct: Eurofins
Protocol: The current body of literature consistently reports that both sodium (Navx) and Cav1.2 calcium ion channels can be involved in the pathogenesis of epilepsy[67]−[69] and neuropathic pain.[70]−[73] […] Therefore, we performed binding and functional studies toward sodium (site 2) and calcium Cav1.2 channels at concentrations of 10 μM for (R)-31−(R)-33.
(§1) Using previously described testing methodologies, binding/functional tests were conducted on a commercial basis at Eurofins Laboratories (Poitiers, France) and Eurofins Panlabs Discovery Services Taiwan, Ltd. (New Taipei City, Taiwan); see Table S9 for more information.
Table S9. Radioligand binding and functional assays.
Cav1.2 (L-type) (h) calcium ion channel cell-based antagonist calcium flux assay […]
(§2) Assays were performed commercially in Eurofins Laboratories (Poitiers, France) or Eurofins Panlabs Discovery Services
(§3) Taiwan, Ltd. (New Taipei City, Taiwan).

TRPM8 (h) = target: T2, TRPM8 (h) (Homo sapiens, UniProt Q7Z2W7); test: TRPM8 (h) (antagonist effect); format: cell-based; conditions: HEK293, human recombinant HEK-293 cell, read-out: % inhibition of control agonist response
T2 construct: Eurofins
Protocol: as §1
(§4) Table S9. Radioligand binding and functional assays. […]
TRPM8 (h) (antagonist effect) […]
as §2, §3

TRPA1 (h) = target: T3, TRPA1 (h) (Homo sapiens, UniProt O75762); test: TRPA1 (h) cell based antagonist calcium flux assay; conditions: HEK293, human recombinant HEK-293 cell, read-out: % inhibition of control agonist response
T3 construct: Eurofins
T3 sequence (O75762 whole entry): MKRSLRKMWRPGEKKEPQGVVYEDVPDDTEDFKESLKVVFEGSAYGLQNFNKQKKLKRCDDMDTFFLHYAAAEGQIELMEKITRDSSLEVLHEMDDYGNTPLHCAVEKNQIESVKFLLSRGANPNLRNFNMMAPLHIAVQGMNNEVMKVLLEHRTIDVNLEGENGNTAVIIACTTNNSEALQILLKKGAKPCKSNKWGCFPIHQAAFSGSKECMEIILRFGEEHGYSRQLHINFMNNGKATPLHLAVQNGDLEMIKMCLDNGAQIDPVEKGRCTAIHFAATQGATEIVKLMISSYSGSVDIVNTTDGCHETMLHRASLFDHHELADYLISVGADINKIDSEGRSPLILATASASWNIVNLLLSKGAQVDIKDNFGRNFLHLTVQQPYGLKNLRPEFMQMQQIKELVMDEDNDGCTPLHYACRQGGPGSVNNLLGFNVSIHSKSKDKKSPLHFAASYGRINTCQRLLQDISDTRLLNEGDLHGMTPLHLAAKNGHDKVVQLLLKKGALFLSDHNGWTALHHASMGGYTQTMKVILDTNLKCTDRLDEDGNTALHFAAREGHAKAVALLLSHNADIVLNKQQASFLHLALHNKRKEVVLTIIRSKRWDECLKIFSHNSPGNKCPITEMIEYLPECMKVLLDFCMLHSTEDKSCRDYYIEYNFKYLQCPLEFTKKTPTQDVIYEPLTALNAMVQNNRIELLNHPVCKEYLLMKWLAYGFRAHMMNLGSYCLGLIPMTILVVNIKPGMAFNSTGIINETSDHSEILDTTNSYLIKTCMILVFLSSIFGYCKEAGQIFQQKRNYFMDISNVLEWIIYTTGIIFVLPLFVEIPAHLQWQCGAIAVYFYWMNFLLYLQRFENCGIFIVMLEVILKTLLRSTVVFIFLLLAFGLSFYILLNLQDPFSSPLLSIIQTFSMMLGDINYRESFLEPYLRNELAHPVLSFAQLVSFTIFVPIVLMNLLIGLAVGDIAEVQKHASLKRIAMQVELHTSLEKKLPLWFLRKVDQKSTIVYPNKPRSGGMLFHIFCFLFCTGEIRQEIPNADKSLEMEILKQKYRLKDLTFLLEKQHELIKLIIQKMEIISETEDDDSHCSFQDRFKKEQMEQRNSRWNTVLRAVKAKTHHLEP
Protocol: as §1, §4
TRPA1 (h) transient potential ion channel cell based antagonist calcium flux assay […]
as §2, §3

[3] = test system: fast voltage-gated sodium channels in rat prefrontal cortex pyramidal neurons; test: patch-clamp of fast voltage-gated sodium currents in prefrontal cortex pyramidal neurons; format: cell-based; conditions: 10 μM, control = 1.0, n = 5
Excerpt: Figure 9 Compounds (R)-31 and (R)-32 inhibit fast voltage-gated sodium currents in prefrontal cortex pyramidal neurons. (A) Example sodium current recordings in control (black trace), after application of (R)-31 (blue trace) and after wash-out (red trace). Current traces were evoked by a rectangular voltage-step. (B) Influence of (R)-31 on sodium current is shown on an example neuron. Current traces were evoked once every 10 s. […] (C) Averaged, normalized maximal sodium current amplitudes in control, in the presence of (R)-31 and after wash-out. […] (D) Example sodium current recordings in control (black trace), after application of (R)-32 (blue trace) and after wash-out (red trace). Current traces were evoked by a rectangular voltage-step. (E) Influence of (R)-32 on sodium current is shown on an example neuron. Current traces were evoked once every 10 s. […] (F) Averaged, normalized maximal sodium current amplitudes in control, in the presence of (R)-32 and after wash-out.
Patch-clamp studies were carried out in prefrontal cortex pyramidal neurons. The methodology of slice preparation, preparation of dispersed cortical neurons, and sodium currents recording technique were the same as in our previous study.[99]

[4] = target: T4, Voltage-Gated Sodium channel hNav1.6 (Homo sapiens, UniProt Q9UQD0); test: human sodium ion channel cell based automated patch clamp assay, hNav1.6
T4 construct: Eurofins Discovery (St. Charles, MO, USA)
T4 sequence (Q9UQD0 whole entry): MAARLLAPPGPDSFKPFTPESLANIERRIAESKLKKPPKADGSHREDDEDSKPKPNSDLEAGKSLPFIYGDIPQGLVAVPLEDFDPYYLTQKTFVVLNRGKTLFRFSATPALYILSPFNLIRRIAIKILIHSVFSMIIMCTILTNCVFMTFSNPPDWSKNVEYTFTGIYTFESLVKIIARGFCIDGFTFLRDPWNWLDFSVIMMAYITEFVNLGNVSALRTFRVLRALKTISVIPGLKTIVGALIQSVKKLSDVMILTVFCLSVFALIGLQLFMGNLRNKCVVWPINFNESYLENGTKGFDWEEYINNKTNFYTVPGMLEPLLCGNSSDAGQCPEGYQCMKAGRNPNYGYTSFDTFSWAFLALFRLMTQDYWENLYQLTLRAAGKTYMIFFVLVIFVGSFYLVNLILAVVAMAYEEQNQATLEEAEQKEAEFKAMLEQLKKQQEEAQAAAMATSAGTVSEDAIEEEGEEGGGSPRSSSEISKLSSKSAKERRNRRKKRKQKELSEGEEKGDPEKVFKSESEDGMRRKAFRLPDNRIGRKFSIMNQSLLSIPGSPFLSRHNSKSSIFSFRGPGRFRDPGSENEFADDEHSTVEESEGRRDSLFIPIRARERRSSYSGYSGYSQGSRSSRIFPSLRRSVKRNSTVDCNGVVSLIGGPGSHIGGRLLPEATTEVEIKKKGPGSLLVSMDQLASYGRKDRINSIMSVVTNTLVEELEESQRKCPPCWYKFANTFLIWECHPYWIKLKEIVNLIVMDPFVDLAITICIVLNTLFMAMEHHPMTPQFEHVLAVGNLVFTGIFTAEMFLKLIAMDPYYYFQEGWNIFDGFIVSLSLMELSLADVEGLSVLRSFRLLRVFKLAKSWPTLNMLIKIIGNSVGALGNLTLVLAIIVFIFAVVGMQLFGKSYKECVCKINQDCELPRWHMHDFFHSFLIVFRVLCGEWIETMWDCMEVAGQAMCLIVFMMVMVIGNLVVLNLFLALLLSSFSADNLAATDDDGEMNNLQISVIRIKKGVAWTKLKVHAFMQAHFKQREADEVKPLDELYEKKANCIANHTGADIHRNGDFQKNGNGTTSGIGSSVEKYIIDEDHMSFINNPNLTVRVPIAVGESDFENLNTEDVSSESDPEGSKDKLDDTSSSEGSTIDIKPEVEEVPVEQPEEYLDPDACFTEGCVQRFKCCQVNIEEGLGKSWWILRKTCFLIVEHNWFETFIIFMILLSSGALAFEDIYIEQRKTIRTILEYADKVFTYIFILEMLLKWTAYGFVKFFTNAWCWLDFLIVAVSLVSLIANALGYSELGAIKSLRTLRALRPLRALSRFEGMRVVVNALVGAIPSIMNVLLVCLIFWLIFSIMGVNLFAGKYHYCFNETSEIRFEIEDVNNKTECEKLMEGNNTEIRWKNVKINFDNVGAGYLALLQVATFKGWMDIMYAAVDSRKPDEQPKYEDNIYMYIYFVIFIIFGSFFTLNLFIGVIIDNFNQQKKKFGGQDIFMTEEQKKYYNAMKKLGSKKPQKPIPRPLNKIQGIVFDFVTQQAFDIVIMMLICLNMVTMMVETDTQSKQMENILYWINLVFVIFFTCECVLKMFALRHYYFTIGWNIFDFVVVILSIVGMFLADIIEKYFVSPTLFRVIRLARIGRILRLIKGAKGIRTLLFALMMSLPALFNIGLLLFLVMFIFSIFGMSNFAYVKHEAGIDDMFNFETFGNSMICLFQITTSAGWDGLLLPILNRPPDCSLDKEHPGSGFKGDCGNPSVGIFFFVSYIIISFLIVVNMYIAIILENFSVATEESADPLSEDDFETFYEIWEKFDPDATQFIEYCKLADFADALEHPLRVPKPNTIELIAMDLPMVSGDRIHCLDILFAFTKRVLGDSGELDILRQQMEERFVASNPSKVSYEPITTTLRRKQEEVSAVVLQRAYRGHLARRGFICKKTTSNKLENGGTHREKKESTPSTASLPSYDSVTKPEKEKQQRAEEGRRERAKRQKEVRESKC
Protocol: Therefore, as a part of the more detailed functional characterization using automated patch clamp method, we tested the influence of (R)-32 on sodium currents mediated by several Navx channels comprising 5 different human subunits, namely, Nav1.1, Nav1.2, Nav1.3, Nav1.6, and Nav1.7, which are involved in both seizure and/or pain modulation.[74],[80],[81] As summarized in Tables S4–S8, (R)-32 starting from 10 μM effectively and in concentration-dependent manner decreased sodium currents mediated by all aforementioned sodium channel subunits. Furthermore, (R)-32 appeared to bind exclusively to sodium channels that are in an inactivated state (see pulse 2 in Tables S4–S8), but not to the channels that are in an open state (pulse 1) (for additional details, see Supporting Information).
Human sodium ion channels cell based automated patch clamp assay
Human sodium ion channels cell based automated patch clamp assays: sodium channels exist in, a) a resting or closed state at -120 mV, b) a transient open state that inactivates to c) inactivated state at -10 mV. Sodium current inhibition within 1-2 ms of channel opening at 0 mV is open channel inhibition (pulse 1). In order to completely inactivate the sodium channels and facilitate inactivated state-dependent binding of the drug, the channels were kept at […] ( -10 mV) longer (pulsed for 500 ms) and then stepped back to -120 mV for 10 ms to recover from inactivation into resting or closed state (but the channels that had drug bound to them will not recover from inactivation and will not open) before stepping to -10 mV for 50 ms (pulse 2) to mea sure sodium channels that are available to open. The higher inhibition seen at pulse 2 is due to inactivated state -dependent inhibition. Pulse 1 and 2 are used to investigate drug binding to the open state and inactivated state of the Na channels, respectively. Each concentration of compound is applied for 5 minutes. The results obtained for (R)-32 are summerized in Tables S4–S8. […]
Compound Concentration Measurement % Inhibition
Data interpretation: Results showing inhibition greater than 50% are considered to represent significant effects of test compound and have been bolded for (R)-32 for better visualization. The studies were carried out in Eurofins Discovery (St. Charles, MO, USA).

[5] = target: T5, Voltage-Gated Sodium channel hNav1.7 (Homo sapiens, UniProt Q15858); test: human sodium ion channel cell based automated patch clamp assay, hNav1.7
T5 construct: Eurofins Discovery (St. Charles, MO, USA)
T5 sequence (Q15858 whole entry): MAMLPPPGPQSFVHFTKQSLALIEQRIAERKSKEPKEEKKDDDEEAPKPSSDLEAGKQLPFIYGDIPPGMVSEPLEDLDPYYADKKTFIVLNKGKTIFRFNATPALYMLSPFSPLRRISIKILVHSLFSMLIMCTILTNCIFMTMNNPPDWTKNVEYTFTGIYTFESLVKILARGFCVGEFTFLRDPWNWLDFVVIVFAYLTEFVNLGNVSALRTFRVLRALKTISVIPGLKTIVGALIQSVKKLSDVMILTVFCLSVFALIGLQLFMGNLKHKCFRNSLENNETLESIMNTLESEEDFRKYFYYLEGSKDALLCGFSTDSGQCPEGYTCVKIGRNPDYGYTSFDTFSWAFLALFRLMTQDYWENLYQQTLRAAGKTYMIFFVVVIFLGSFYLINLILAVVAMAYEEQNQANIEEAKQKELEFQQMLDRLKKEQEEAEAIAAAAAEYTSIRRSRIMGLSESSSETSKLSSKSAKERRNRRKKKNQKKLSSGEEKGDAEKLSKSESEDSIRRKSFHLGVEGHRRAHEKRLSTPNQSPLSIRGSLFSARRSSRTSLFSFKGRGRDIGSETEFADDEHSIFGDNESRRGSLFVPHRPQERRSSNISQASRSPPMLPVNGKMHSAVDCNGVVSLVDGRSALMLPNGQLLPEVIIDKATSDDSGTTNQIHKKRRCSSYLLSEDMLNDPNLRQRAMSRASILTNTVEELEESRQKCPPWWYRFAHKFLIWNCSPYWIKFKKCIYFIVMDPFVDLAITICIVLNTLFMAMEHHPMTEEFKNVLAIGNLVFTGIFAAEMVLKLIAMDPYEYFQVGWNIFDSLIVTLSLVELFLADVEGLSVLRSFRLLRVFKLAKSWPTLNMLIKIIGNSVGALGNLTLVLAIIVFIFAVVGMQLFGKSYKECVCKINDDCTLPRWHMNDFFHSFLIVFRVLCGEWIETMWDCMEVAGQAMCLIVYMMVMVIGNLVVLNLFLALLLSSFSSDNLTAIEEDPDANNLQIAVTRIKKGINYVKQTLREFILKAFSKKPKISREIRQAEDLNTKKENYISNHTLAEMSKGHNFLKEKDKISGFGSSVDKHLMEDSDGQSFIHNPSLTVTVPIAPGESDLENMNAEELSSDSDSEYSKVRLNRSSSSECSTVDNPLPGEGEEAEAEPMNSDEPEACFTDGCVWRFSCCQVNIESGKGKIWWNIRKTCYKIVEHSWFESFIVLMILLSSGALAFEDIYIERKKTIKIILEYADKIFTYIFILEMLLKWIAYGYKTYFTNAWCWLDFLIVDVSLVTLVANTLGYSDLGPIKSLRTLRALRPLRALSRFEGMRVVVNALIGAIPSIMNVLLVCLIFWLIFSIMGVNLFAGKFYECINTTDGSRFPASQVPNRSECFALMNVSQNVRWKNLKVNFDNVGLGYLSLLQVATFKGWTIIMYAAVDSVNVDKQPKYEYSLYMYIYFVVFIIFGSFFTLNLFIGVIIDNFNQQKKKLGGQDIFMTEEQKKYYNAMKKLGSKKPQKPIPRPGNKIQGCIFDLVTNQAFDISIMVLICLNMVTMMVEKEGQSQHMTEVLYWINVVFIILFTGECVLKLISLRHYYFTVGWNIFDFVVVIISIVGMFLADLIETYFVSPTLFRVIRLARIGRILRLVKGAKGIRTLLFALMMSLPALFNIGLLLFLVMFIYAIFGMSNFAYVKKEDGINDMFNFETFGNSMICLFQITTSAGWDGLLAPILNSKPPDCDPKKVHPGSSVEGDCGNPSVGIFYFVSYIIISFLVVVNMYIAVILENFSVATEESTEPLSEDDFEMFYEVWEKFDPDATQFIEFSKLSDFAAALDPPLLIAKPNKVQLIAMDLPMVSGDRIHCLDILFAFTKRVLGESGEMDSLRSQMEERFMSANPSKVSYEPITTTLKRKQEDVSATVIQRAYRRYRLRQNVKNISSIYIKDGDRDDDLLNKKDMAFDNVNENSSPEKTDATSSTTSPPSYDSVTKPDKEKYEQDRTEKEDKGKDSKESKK
Excerpt: Human sodium ion channels cell based automated patch clamp assays: sodium channels exist in, a) a resting or closed state at -120 mV, b) a transient open state that inactivates to c) inactivated state at -10 mV. Sodium current inhibition within 1-2 ms of channel opening at 0 mV is open channel inhibition (pulse 1). In order to completely inactivate the sodium channels and facilitate inactivated state-dependent binding of the drug, the channels were kept at open state ( -10 mV) longer (pulsed for 500 ms) and then stepped back to -120 mV for 10 ms to recover from inactivation into resting or closed
open) before stepping to -10 mV for 50 ms (pulse 2) to mea sure sodium channels that are available to open. […] Pulse 1 and 2 are used to investigate drug binding to the open state and inactivated state of the Na channels, respectively. Each concentration of compound is applied for 5 minutes.
Voltage-Gated Sodium channel hNav1.1

[6] = hNav1.6, Pulse 1 (open state), read-out: % Inhibition Mean
[7] = hNav1.6, Pulse 1 (open state), read-out: % Inhibition n1
[8] = hNav1.6, Pulse 1 (open state), read-out: % Inhibition n2
[9] = hNav1.6, Pulse 2 (inactivated state), read-out: % Inhibition Mean
[10] = hNav1.6, Pulse 2 (inactivated state), read-out: % Inhibition n1
[11] = hNav1.6, Pulse 2 (inactivated state), read-out: % Inhibition n2
[12] = hNav1.7, Pulse 1 (open state), read-out: % Inhibition Mean
[13] = hNav1.7, Pulse 1 (open state), read-out: % Inhibition n1
[14] = hNav1.7, Pulse 1 (open state), read-out: % Inhibition n2
[15] = hNav1.7, Pulse 2 (inactivated state), read-out: % Inhibition Mean
[16] = hNav1.7, Pulse 2 (inactivated state), read-out: % Inhibition n1
[17] = hNav1.7, Pulse 2 (inactivated state), read-out: % Inhibition n2

CC(=O)N[C@@H](C(=O)N1CCN(c2cccc(OC(F)(F)F)c2)CC1)c1ccccc1 [(R)-32, (R)-N-(2-Oxo-1-phenyl-2-(4-(3-(trifluoromethoxy)phenyl)piperazin-1-yl)ethyl)acetamide]
nociceptive response, acute phase of the formalin test ([1]; 100 mg/kg i.p., 0–5 min after formalin): decreased the nociceptive response
nociceptive reaction, second phase of the formalin test ([1]; 25, 50 and 100 mg/kg i.p.): inhibited nociceptive reaction at all tested doses
ED50 ([1]; Mus musculus, ip, mice, i.p., phase II, read-out: ED50 in the late phase of the formalin test): 35.7 mg/kg
inhibition at 10 µM [2]: 31%
inhibition at 10 µM (TRPM8 (h)): 12.6%
inhibition at 10 µM (TRPA1 (h)): 9.6%
averaged, maximal-normalized amplitude of voltage-gated sodium currents after application [3]: 0.61 ± 0.07
averaged, maximal-normalized amplitude of voltage-gated sodium currents after wash-out [3]: 0.72 ± 0.08
inhibition at 1 µM [4, 6]: -5.14%
inhibition at 1 µM [4, 7]: -8.4%
inhibition at 1 µM [4, 8]: -1.89%
inhibition at 10 µM [4, 6]: -10.8%
inhibition at 10 µM [4, 7]: -14.4%
inhibition at 10 µM [4, 8]: -7.25%
inhibition at 100 µM [4, 6]: -0.11%
inhibition at 100 µM [4, 7]: -1.89%
inhibition at 100 µM [4, 8]: 1.68%
inhibition at 1 µM [4, 9]: -4.59%
inhibition at 1 µM [4, 10]: -10.1%
inhibition at 1 µM [4, 11]: 0.93%
inhibition at 10 µM [4, 9]: 39.9%
inhibition at 10 µM [4, 10]: 53%
inhibition at 10 µM [4, 11]: 26.9%
inhibition at 100 µM [4, 9]: 108%
inhibition at 100 µM [4, 10]: 121%
inhibition at 100 µM [4, 11]: 95.2%
inhibition at 1 µM [5, 12]: -5.74%
inhibition at 1 µM [5, 13]: -4.13%
inhibition at 1 µM [5, 14]: -7.35%
inhibition at 10 µM [5, 12]: 6.15%
inhibition at 10 µM [5, 13]: -0.03%
inhibition at 10 µM [5, 14]: 12.3%
inhibition at 100 µM [5, 12]: 22.9%
inhibition at 100 µM [5, 13]: 19.2%
inhibition at 100 µM [5, 14]: 26.5%
inhibition at 1 µM [5, 15]: -3.08%
inhibition at 1 µM [5, 16]: -3.09%
inhibition at 1 µM [5, 17]: -3.07%
inhibition at 10 µM [5, 15]: 37.8%
inhibition at 10 µM [5, 16]: 35.3%
inhibition at 10 µM [5, 17]: 40.4%
inhibition at 100 µM [5, 15]: 98.4%
inhibition at 100 µM [5, 16]: 98.7%
inhibition at 100 µM [5, 17]: 98%
